Experimental data from patent publication US5863716A, “Treatment of plasmodium” (The Leland Stanford Junior University Board of Trustees, priority 1997, dated 1999).

Experiments:
P. falciparum = assay: Intraerythrocytic development in long term synchronized culture, parasitemia over consecutive cycles; type: cell-based, Plasmodium falciparum
Method: Synchronized cultures 12 h after invasion were subjected to different concentrations of PPMP. Parasitemias of drug-treated cultures were determined at various time points during two intraerythrocytic cycles and compared to cells grown in the absence of drug.
The effect of the single lipid analogs to inhibit parasite development in long term culture in consecutive cycles of the parasite growth were investigated. The studies were initiated with synchronized, young rings (0-12h) at 10% parasitemia. In order to ensure healthy growth of the malaria parasite in vitro, the parasitemias of the cultures are not allowed to exceed 10%. Yet under normal conditions a 3-6 fold increase in parasitemias is detected with each round of invasion: thus for each new cycle, the cultures were diluted 4-fold into fresh erythrocytes in the absence or presence of the drug. […] The lowest effective, killing concentration of PDMP over three cycles of growth is 1.0 μM.

[1] = system: tubovesicular membrane reticulum (TVM) of P. falciparum-infected erythrocytes; assay: Tubovesicular membrane (TVM) morphology, C5-DMB-ceramide labeling, confocal microscopy; type: cell-based; conditions: 5 μM
Method: Serial sections through P. falciparum-infected erythrocytes labeled with C5 -DMB-ceramide (4,4-difluoro-5,7-dimethyl-4-bora-3a,4a-diaza-5-indacene-3-pentanoyl)-sphingosine) 12 h (rings) and 36 h (trophozoites) after invasion.
Schizont-stage parasites isolated over Percoll were allowed to invade in the presence of RPMI 1640 containing 10% human serum or in the presence of RPMI 1640 containing 10% human serum and 5 μM PPMP. 1×10^8 infected erythrocytes of the appropriate stage were incubated in 1 ml of RPMI 1640 supplemented with 2mg/ml defatted BSA and 20 μM C5 -DMB-ceramide. Cells were washed and fixed as described in Example 5. Sequential micrographs were taken on a custom made laser confocal microscope at 400 nm intervals along the Z axis. Raw data were processed as described previously.

[2] = system: P. yoelii and P. chabaudi; assay: Anti-parasite effect in infected mice; type: in vivo, mouse
Method: Preparation of test compounds, toxicity and pharmacokinetics in mice: PPMP and its derivatives are made up as a stock solution in ethanol, diluted into sterile saline, warmed up to 37° C. and delivered once or several times a day, either intraperitoneally (i.p.) or intravenously (i.v.). The animals are monitored on a daily basis for signs of toxicities which (from mild to extreme) include abnormal grooming behavior, loss or thinning of hair, enlargement of spleen and loss of activity. 0 to 30 micrograms PPMP/per gm of mouse body weight is administered. Effective anti-parasite concentrations of PPMP are predicted to be at ~2 micrograms of PPMP/gm of mouse body weight. Based on preliminary studies, 8-10 micrograms of PPMP per gram of (mouse) body weight have no significant toxicity over 16 days. Compounds and levels found to be non toxic over 30 days will be further tested for their effects on infections of P. yoelii and P. chabaudi.
Effects of PPMP/other lead compounds on non lethal and lethal strains of P. yoelii and P. chabaudi. Both lethal and non lethal strains of P. yoelii have a 24 h cycle. For both strains, parasites can be injected i.p., with an innoculum of 5×10^5 parasites. […]
Mice are injected with the inhibitor on day 1. […] On subsequent days the drugs is delivered once a day and the parasitemia is monitored by tail bleeds. […]

DNA synthesis = assay: Effect on DNA synthesis; type: cell-based
[3] = PPMP 0.05 μM, time in drug 0 h, time of cycle 12 h, cycle 1
[4] = PPMP 0.05 μM, time in drug 34 h, time of cycle 46 h, cycle 1, culture fourfold diluted
[5] = PPMP 0.05 μM, time in drug 60 h, time of cycle 12 h, cycle 2
[6] = PPMP 0.05 μM, time in drug 80 h, time of cycle 32 h, cycle 2, culture fourfold diluted
[7] = PPMP 0.05 μM, time in drug 104 h, time of cycle 8 h, cycle 3
[8] = PPMP 0.1 μM, time in drug 0 h, time of cycle 12 h, cycle 1
[9] = PPMP 0.1 μM, time in drug 34 h, time of cycle 46 h, cycle 1, culture fourfold diluted
[10] = PPMP 0.1 μM, time in drug 60 h, time of cycle 12 h, cycle 2
[11] = PPMP 0.1 μM, time in drug 80 h, time of cycle 32 h, cycle 2, culture fourfold diluted
[12] = PPMP 0.1 μM, time in drug 104 h, time of cycle 8 h, cycle 3
[13] = PPMP 0.5 μM, time in drug 0 h, time of cycle 12 h, cycle 1
[14] = PPMP 0.5 μM, time in drug 34 h, time of cycle 46 h, cycle 1, culture fourfold diluted
[15] = PPMP 0.5 μM, time in drug 60 h, time of cycle 12 h, cycle 2
[16] = PPMP 0.5 μM, time in drug 80 h, time of cycle 32 h, cycle 2, culture fourfold diluted
[17] = PPMP 0.5 μM, time in drug 104 h, time of cycle 8 h, cycle 3
[18] = PPMP 1.0 μM, time in drug 0 h, time of cycle 12 h, cycle 1
[19] = PPMP 1.0 μM, time in drug 34 h, time of cycle 46 h, cycle 1, culture fourfold diluted
[20] = PPMP 1.0 μM, time in drug 60 h, time of cycle 12 h, cycle 2
[21] = PPMP 1.0 μM, time in drug 80 h, time of cycle 32 h, cycle 2, culture fourfold diluted
[22] = PPMP 1.0 μM, time in drug 104 h, time of cycle 8 h, cycle 3
[23] = PPMP 5.0 μM, time in drug 0 h, time of cycle 12 h, cycle 1
[24] = PPMP 5.0 μM, time in drug 34 h, time of cycle 46 h, cycle 1, culture fourfold diluted
[25] = PPMP 5.0 μM, time in drug 60 h, time of cycle 12 h, cycle 2
[26] = PPMP 5.0 μM, time in drug 80 h, time of cycle 32 h, cycle 2, culture fourfold diluted
[27] = PPMP 5.0 μM, time in drug 104 h, time of cycle 8 h, cycle 3

## CCCCCCCCCCCCCCCC(=O)N[C@H](CN1CCOCC1)[C@H](O)c1ccccc1 (relative stereo) [PPMP, dl-threo-1-phenyl-2-palmitoylamino-3-morpholino-1-propanol]
P. falciparum
  effect on trophozoite stage parasites: blocks the development of trophozoite stage parasites
P. falciparum; 5 μM, first cycle
  effect on ring development: completely inhibits rings in their first cycle growth
P. falciparum; 0.05 to 1.0 μM PPMP
  growth inhibition with increasing concentration: gradual increase in the observed growth inhibition
P. falciparum; [3]
  parasitemia [%], ring: 10%
  parasitemia [%], schizont: 0%
  parasitemia [%], trophozoite: 0%
P. falciparum; [4]
  parasitemia [%], ring: 0%
  parasitemia [%], schizont: 5%
  parasitemia [%], trophozoite: 4%
P. falciparum; [5]
  parasitemia [%], ring: 5%
  parasitemia [%], schizont: 1%
  parasitemia [%], trophozoite: 0%
P. falciparum; [6]
  parasitemia [%], ring: 5%
  parasitemia [%], schizont: 0%
  parasitemia [%], trophozoite: 0%
P. falciparum; [7]
  parasitemia [%], ring: 1%
  parasitemia [%], schizont: 0%
  parasitemia [%], trophozoite: 0%
P. falciparum; [8]
  parasitemia [%], ring: 10%
  parasitemia [%], schizont: 0%
  parasitemia [%], trophozoite: 0%
P. falciparum; [9]
  parasitemia [%], ring: 0%
  parasitemia [%], schizont: 5%
  parasitemia [%], trophozoite: 4%
P. falciparum; [10]
  parasitemia [%], ring: 4%
  parasitemia [%], schizont: 1%
  parasitemia [%], trophozoite: 0%
P. falciparum; [11]
  parasitemia [%], ring: 4%
  parasitemia [%], schizont: 0%
  parasitemia [%], trophozoite: 0%
P. falciparum; [12]
  parasitemia [%], ring: 1%
  parasitemia [%], schizont: 0%
  parasitemia [%], trophozoite: 0%
P. falciparum; [13]
  parasitemia [%], ring: 10%
  parasitemia [%], schizont: 0%
  parasitemia [%], trophozoite: 0%
P. falciparum; [14]
  parasitemia [%], ring: 0%
  parasitemia [%], schizont: 4%
  parasitemia [%], trophozoite: 5%
P. falciparum; [15]
  parasitemia [%], ring: 4%
  parasitemia [%], schizont: 1%
  parasitemia [%], trophozoite: 0%
P. falciparum; [16]
  parasitemia [%], ring: 5%
  parasitemia [%], schizont: 0%
  parasitemia [%], trophozoite: 0%
P. falciparum; [17]
  parasitemia [%], ring: 1%
  parasitemia [%], schizont: 0%
  parasitemia [%], trophozoite: 0%
P. falciparum; [18]
  parasitemia [%], ring: 10%
  parasitemia [%], schizont: 0%
  parasitemia [%], trophozoite: 0%
P. falciparum; [19]
  parasitemia [%], ring: 0%
  parasitemia [%], schizont: 4%
  parasitemia [%], trophozoite: 4%
P. falciparum; [20]
  parasitemia [%], ring: 3%
  parasitemia [%], schizont: 2%
  parasitemia [%], trophozoite: 0%
P. falciparum; [21]
  parasitemia [%], ring: 3%
  parasitemia [%], schizont: 0%
  parasitemia [%], trophozoite: 0%
P. falciparum; [22]
  parasitemia [%], ring: 1%
  parasitemia [%], schizont: 0%
  parasitemia [%], trophozoite: 0%
P. falciparum; [23]
  parasitemia [%], ring: 10%
  parasitemia [%], schizont: 0%
  parasitemia [%], trophozoite: 0%
P. falciparum; [24]
  parasitemia [%], ring: 9%
  parasitemia [%], schizont: 0%
  parasitemia [%], trophozoite: 0%
P. falciparum; [25]
  parasitemia [%], ring: 2%
  parasitemia [%], schizont: 0%
  parasitemia [%], trophozoite: 0%
P. falciparum; [26]
  parasitemia [%], ring: 0%
  parasitemia [%], schizont: 0%
  parasitemia [%], trophozoite: 0%
P. falciparum; [27]
  parasitemia [%], ring: 0%
  parasitemia [%], schizont: 0%
  parasitemia [%], trophozoite: 0%
P. falciparum; concentrations as low as 0.05 μM, first cycle
  effect on development: do not stop development through the first cycle
P. falciparum; long term culture
  efficacy compared with PDMP: more effective than PDMP
[1]; 240 optical sections through 20 cells
  TVM morphology in rings formed in the presence of drug: markedly devoid of tubular connections
[1]; 36 h in the life cycle
  intraerythrocytic structures at 36 h in continued presence of drug: remain as isolated spots
[2]
  effective anti-parasite concentration (predicted): ~ 2 micrograms of PPMP/gm of mouse body weight
DNA synthesis
  inhibition of DNA synthesis: not inhibitory
